Reference: patent US6255497A, “Method for the inhibition of ALDH-I useful in the treatment of alcohol dependence or alcohol abuse” (priority 1998, dated 2001)
In brackets after ≈: the same amount, converted by molar mass. Read-outs that look alike come from different tables or passages of the source.

Columns and labels:
ALDH-I [1] = conditions: cited from earlier work
ALDH-II [2] = conditions: cited from earlier work
ALDH-I [3] = conditions: via reactive product of catabolism; cited from earlier work
ALDH-II [4] = conditions: via reactive product of catabolism; cited from earlier work
ALDH [5] = conditions: cited from earlier work
[6] = experimental animals; cited from earlier work
euphoria = conditions: double-blind study in humans; cited from earlier work
alcohol consumption [7] = conditions: rat, in vivo; cited from earlier work
[8] = cited from earlier work
human class IV ADH = conditions: cited from earlier work
golden hamsters = test: Dose effect on free choice ethanol intake in golden hamsters, i.p.; assay type: in vivo, golden hamster
Source text: It is common practice in quantitative drug studies with rodents to use intraperitoneal (i.p.) administration to deliver drug doses accurately (Goodman and Gilman, 1975, The Pharmacological Basis of Therapeutics, 5th ed., Macmillan, N.Y., p. 8). In particular, this method avoids variability introduced by technical difficulties of oral administration via feeding (full versus empty stomach, etc.), variations in drug transport in the gastrointestinal tract (variations in intestinal fauna and flora, individual variations in absorption rate expected of outbred animals, etc.) and other factors. […] As a control 1 ml of sterile saline was injected i.p. daily during the baseline period (typically 7-9 days) that establishes drinking preference without the drug. Saline injection i.p. had no effect on the drinking behavior of golden hamsters. Ethanol was provided as a 20% solution. Hamsters could be used more than once (but were not used more than three times) in a cycle of baseline saline injections followed by drug injections, each cycle with the drug at a different dose.
The response to daidzin treatment was computed as:
% Response=(Vo -Vd)×100/Vo

[9] = Plasma drug concentration versus time after a single 10 mg dose; assay type: in vivo; conditions: golden hamster
Source text: Five hours later the plasma concentrations of both inhibitors were still above […], far above their competitive inhibition constants for ALDH-I.

physchem = conditions: water
ALDH-I [10] = target: T1, ALDH-I (Homo sapiens, UniProt P05091); test: Competitive inhibition of ALDH-I with acetaldehyde as substrate, progress curve method; assay type: biochemical; set-up: A liver sample (50 g wet weight) with the usual Caucasian ALDH phenotype (both ALDH-I and ALDH-II present); from tissue; host or cells: human liver (autopsy), purified by CM-52, AMP-agarose and DEAE HPLC
T1 sequence (P05091 18-517): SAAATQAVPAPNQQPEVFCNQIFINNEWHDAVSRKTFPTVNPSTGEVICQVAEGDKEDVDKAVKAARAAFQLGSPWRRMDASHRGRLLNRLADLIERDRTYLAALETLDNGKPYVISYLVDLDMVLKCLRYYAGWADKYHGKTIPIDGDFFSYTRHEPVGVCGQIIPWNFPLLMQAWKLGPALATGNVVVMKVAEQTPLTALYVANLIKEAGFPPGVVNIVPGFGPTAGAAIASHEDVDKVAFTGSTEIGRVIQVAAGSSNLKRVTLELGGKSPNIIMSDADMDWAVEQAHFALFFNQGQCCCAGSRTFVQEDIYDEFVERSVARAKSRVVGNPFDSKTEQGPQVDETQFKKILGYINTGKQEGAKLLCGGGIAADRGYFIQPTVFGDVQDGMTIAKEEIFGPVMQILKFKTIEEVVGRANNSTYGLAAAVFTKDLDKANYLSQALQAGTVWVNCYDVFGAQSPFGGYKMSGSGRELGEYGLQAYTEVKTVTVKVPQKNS
Source text: The progress curve method described by Klyosov and Berezin, 1972, Biokhimiya (Engl. transl.), Plenum, New York, 22: 141-151, was used instead of the initial velocilty method of Example 3 to obtain precis* values for inhibition constants for ALDH-I with acetaldehyde as substrate and the very tight binding novel inhibitors (Table VI).

ALDH-II [11] = target: T2, ALDH-II (Homo sapiens, UniProt P00352); test: Competitive inhibition of ALDH-II with acetaldehyde as substrate; assay type: biochemical; set-up: A liver sample (50 g wet weight) with the usual Caucasian ALDH phenotype (both ALDH-I and ALDH-II present); from tissue; host or cells: human liver (autopsy), purified by CM-52, AMP-agarose and DEAE HPLC; conditions: acetaldehyde as substrate, competitive; read-out: Ki, ALDH-II
T2 sequence (P00352 1-501): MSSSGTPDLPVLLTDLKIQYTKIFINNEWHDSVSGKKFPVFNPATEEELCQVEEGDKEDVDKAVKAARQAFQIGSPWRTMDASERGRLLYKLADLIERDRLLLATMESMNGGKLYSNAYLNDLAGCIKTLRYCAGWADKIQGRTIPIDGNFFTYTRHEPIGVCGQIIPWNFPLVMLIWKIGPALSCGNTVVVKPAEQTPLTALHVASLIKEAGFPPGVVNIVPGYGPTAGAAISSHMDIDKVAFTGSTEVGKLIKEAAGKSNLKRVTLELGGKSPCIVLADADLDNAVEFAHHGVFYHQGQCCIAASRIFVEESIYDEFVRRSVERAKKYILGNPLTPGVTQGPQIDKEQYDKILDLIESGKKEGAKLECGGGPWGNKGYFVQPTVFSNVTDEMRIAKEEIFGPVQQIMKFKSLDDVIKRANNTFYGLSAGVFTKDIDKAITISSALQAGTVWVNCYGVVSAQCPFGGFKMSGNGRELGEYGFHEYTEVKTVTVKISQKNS

ALDH-I or ALDH-II = test: Survey of structurally related compounds for ALDH inhibition; assay type: biochemical, human
Method: For the study of the inhibition of ALDH-I by structurally related compounds to generate the data shown in Tables IV and V, each individual compound was dissolved at different concentrations in methanol and was added to the assay medium as 10 μL aliquots. For controls, 10 […] of methanol was added to the assay medium. In a standard ALDH-I assay, the assay medium contains 0.1 M sodium pyrophosphate pH 9.5, 0.15 M KCl, 1 mM NAD^+, 1% methanol, 5 μM acetaldehyde, 5-10 nM ALDH-I and various concentrations of inhibitor. The enzyme reaction rates were measured by monitoring the production of NADH at 340 nm (ε=6.22 mM^-1 cm^-1) with a Varian Cary 219 spectrophotometer thermostated at 25° C. (Fong et al., 1989, supra). The inhibition of ALDH-I by the inhibitors was calculated as: [formula]
where Vo is the enzyme reaction rate measured in the absence of inhibitor, and where Vi is the enzyme reaction rate measured in the presence of inhibitor. […] IC50 values are related to the underlying Ki values.

ADH isozymes = test: Inhibition of ADH; assay type: biochemical, human
[12] = intravenous, mice; cited from earlier work
[13] = two human volunteers, after 60 hours; cited from earlier work
[14] = system: class I ADH isozymes containing at least one γ-subunit; conditions: cited from earlier work
ALDH-II [15] = conditions: high Km cytosolic isozyme; cited from earlier work
ALDH-I [16] = conditions: cited from earlier work; remark: listed apart in the source
ALDH [17] = conditions: cited from earlier work; remark: listed apart in the source
[18] = system: dopamine-β-hydroxylase, microsomal mixed function oxidases and other sulfhydryl-containing enzymes; conditions: cited from earlier work
alcohol consumption [19] = conditions: placebo-controlled clinical trials; cited from earlier work
[20] = substrate: C=O; test: purified protein, by the assay type; conditions: pH 9.5; 25.0 °C
Method: The inhibition kinetics were studied by the initial velocity method (Dixon and Webb, 1979, Enzymes, 3rd ed., Longman, Great Britain). […] The initial reaction rates were measured in a pH 9.5 assay medium 0.1 11 in glycine-NaOH, 0. […] The enzyme reaction rates were followed by monitoring the production of NADH at 340 nm (ε-6.22 mM^-1 cm^-1) with a Varian Cary 219 spectrophotometer thermostated at 25° C. The kinetic data were analyzed by standard graphical methods.

N#CN [cyanamide]
inhibition of ALDH-I in vitro (ALDH-I [1]): Neither ALDH-I (the low Km isozyme) nor ALDH-II (the high Km isozyme) are inhibited in vitro
inhibition of ALDH-II in vitro (ALDH-II [2]): Neither ALDH-I (the low Km isozyme) nor ALDH-II (the high Km isozyme) are inhibited in vitro
inhibition of ALDH-I in vivo (ALDH-I [3]): inhibits both isozymes
inhibition of ALDH-II in vivo (ALDH-II [4]): inhibits both isozymes
reversibility of ALDH inhibition (ALDH [5]; in vivo): reversible
time of maximal ALDH inhibition after drug administration (ALDH [5]; in vivo): 1 to 2 h
restoration of ALDH activity within 24 hours (ALDH [5]; within 24 hours): 80%
antithyroid activity [6]: significant antithyroid activity
effect with low doses of alcohol (euphoria): induces and enhances euphoria
alcohol consumption after alcohol deprivation (alcohol consumption [7]): increase in alcohol consumption
liver injury ([8]; alcoholics treated with cyanamide): liver injury, including generation of ground-glass inclusion bodies in liver cells
cardiotoxic effects ([8]; in vivo): cardiotoxic effects, including hypotension and even cardiac death

CCO [ethanol]
Km (human class IV ADH): 41 mM

O=C(O)CCCCCCOc1ccc2c(=O)c(-c3ccc(O)cc3)coc2c1 [Daidzein 7-(ω-carboxyhexyl) ether, daidzein 7-(ω-carboxyhexyl) ether]
suppression of alcohol intake, hamster B7 (golden hamsters; 10 mg/day, i.p., trained hamster B7): 69%
suppression of alcohol intake, hamster E23 (golden hamsters; 10 mg/day, i.p., trained hamster E23): 72%
potency relative to daidzin, suppression of alcohol intake (golden hamsters; assuming a dose response slope similar to that of daidzin): not more than twice as potent as daidzin
time to maximal plasma concentration after injection ([9]; i.p.): within about an hour after injection
Cmax ([9]; plasma, ip, read-out: maximal plasma concentration): 4.5 µM
solubility (physchem): 13 mM (≈ 4970 µg/mL)
Ki (ALDH-I [10]): 9 nM
Ki (ALDH-II [11]): 215 nM

O=c1c(-c2ccc(O)cc2)coc2cc(O)ccc12 [Daidzein]
ALDH inhibition (ALDH-I or ALDH-II): does not inhibit ALDH
ADH inhibition (ADH isozymes): selectively inhibits certain ADH isozymes
half-life [12]: on the order of one hour
excretion in urine and feces [13]: little daidzein had appeared in urine and feces after 60 hours

C[C@]12CC[C@H]3[C@@H](CCC4=CC(=O)CC[C@@]43C)[C@@H]1CC[C@@H]2O [testosterone]
selective inhibition of γ-subunit class I ADH [14]: selectively inhibited

CCN(CC)C(=S)SSC(=S)N(CC)CC [disulfiram, tetraethylthiuram disulfide]
inhibition of ALDH-II in vitro (ALDH-II [15]): potent inhibitor
inhibition of ALDH-I in vitro (ALDH-I [16]; major mitochondrial isozyme): only slightly
inhibition of ALDH-I in vitro in presence of mercaptans (ALDH-I [16]; trace amounts of 2-mercaptoethanol or methanethiol): inactivated
reversibility of ALDH inhibition in vivo (ALDH [17]): irreversible
time over which ALDH is inhibited in vivo (ALDH [17]): 12 h
time to restoration of ALDH activity (ALDH [17]; in vivo, de novo enzyme synthesis): ≥ 6 days
specificity of enzyme inhibition [18]: broadly acting but non-specific inhibitor
reduction of alcohol consumption vs placebo (alcohol consumption [19]): no more effective than the placebo control
effect with low doses of alcohol (euphoria): induces and enhances euphoria
skin toxicity and neuropathy ([8]; in vivo): peripheral neuropathy

CCOc1ccc2c(=O)c(-c3ccc(O)cc3)coc2c1 [Daidzein 7-ethyl ether]
Ki (ALDH-I [10]): 38 nM
Ki (ALDH-II [11]): 440 nM

B1: human ALDH-II (Homo sapiens) (protein)
chain: T2 sequence (P00352 1-501)
Km [20]: 6.6 mM
